Read-outs that look alike come from different tables or passages of the source.
What was measured:
BHK-21 cells = settings: H2O2 0, 4, 10, 20 μM; days 4, 5 and 6; hydrogen group vs hydrogen-free group
Procedure: The cells were divided into two groups to analyze the antioxidant effect. […] Following Example 1, when the antioxidant auxiliary equipment was turned on the second day (day 2), hydrogen gas was supplied at the frequency of turning on the current for 15 minutes per hour, the voltage was 3-5V, the constant current was 0.5 A, and the theoretical hydrogen production was about 466×10^−5 moles per hour. On the third day, the frequency was adjusted to turn on for 15 minutes and turn off for 15 minutes to continuously supply hydrogen gas until the end of the experiment. The voltage was 3˜5V, the constant current was 0.5 A, and the theoretical hydrogen production was about 933×10^−5 moles per hour. The culture medium was replaced on the third day, and the cells were cultured until the eighth day. Cell number, hydrogen concentrations, and reactive oxygen species (ROS) tolerance responses were measured daily.
(§1) By adding H2O2 at concentrations of 0 μM, 4 μM, 10 μM, and 20 μM, the BHK-21 cells (1×10^5/test) in the experimental group and in the control group were induced to undergo oxidation reaction. H2DCFDA was modified by cellular esterases to form a non-fluorescent H2DCF after adding H2DCFDA cell-permeant fluorescence probe.

[1] = test system: bovine epidemic fever virus (strain Tn88128); settings: 24 hours after virus infection (the 4th day), 0.01 MOI
Procedure: (§2) 0.01 MOI bovine epidemic fever virus liquid (virus strain Tn88128 , References: Hsieh, Y -C.; Wang, S. -Y; Lee, Y -F.; Chen, S. -H.; Mak, P. O. T.; Chu, C. -Y. DNA sequence analysis of glycoprotein G gene of bovine ephemeral fever virus and development of a double oil emulsion vaccine against bovine ephemeral fever. J. Vet. Med. Sci. 2006, 68, 543-548) was used for infecting two groups of cells and the virus was cultured until the eighth day (day 8), the voltage was 3-5V, and the current was 0.5 A. The cell number, hydrogen concentration, viral titer and cell senescence molecular marker Cdkn2a (p16) were measured daily.
After the virus infection, the virus tier in the virus liquid was measured by the TCID50 detection method after collecting the virus liquid in the bioreactors of the experimental group and the control group every day. The virus liquid was serially diluted 10-fold with MEM to 1/10^10th of original concentration, and then inoculated into a 96-well cell culture plate at 100 μl/well (100 μl of cell fluid was already added to each well, containing 2×10^4 BHK21 cells), the BHK21 cells were cultured in a 5% CO2 incubator at 37° C. for 3 days. After cytopathic effect (CPE) was observed and recorded, TCID50 was calculated using the Reed-Muench method.

[2] = test system: BHK21 cells infected with bovine epidemic fever virus; settings: 24 hours after virus infection; experimental group vs control group
Procedure: (§3) On the second day, the antioxidant auxiliary equipment was started, and hydrogen gas was supplied at the frequency of turning on the current for 15 minutes per hour. On the third day, the frequency of the current was adjusted to the frequency of turning on the current for 15 minutes and turning off the current for 15 minutes. 0.01 MOI bovine epidemic fever virus liquid (virus strain Tn88128 , References: Hsieh, Y -C.; Wang, S. -Y; Lee, Y -F.; Chen, S. -H.; Mak, P. O. T.; Chu, C. -Y. DNA sequence analysis of glycoprotein G gene of bovine ephemeral fever virus and development of a double oil emulsion vaccine against bovine ephemeral fever. J. Vet. Med. Sci. 2006, 68, 543-548) was used for infecting two groups of cells and the virus was cultured until the eighth day (day 8), the voltage was 3-5V, and the current was 0.5 A. The cell number, hydrogen concentration, viral titer and cell senescence molecular marker Cdkn2a (p16) were measured daily.
After virus infection, the cells on the carrier sheet in the bioreactors of the experimental group and the control group were collected every day, 1 ml of CVD was added, and the number of cells was calculated on that day. The formula for calculating the cell death rate is [(total number of cells on the previous day)−(total number of cells on that day)]/(total number of cells on the previous day)*100%.

[3] = test system: hamster kidney cells (BHK21); settings: bioreactor with hydrogen vs without hydrogen, hydrogen supplied from day 2, culture to day 8
Procedure: The hamster kidney cells were incubated at 37° C. in an incubator with 5.0% CO2 using MEM culture medium (Invitrogen, Gibco Co. Ltd., New York, USA, with 10% FBS). The hamster kidney cells were incubated in a cell culture flask (175T Flask) for 3 days, and then placed in a roller bottle for expanded culture for 3 days. At the beginning of the experiment, the cells were first transferred to a tidal bioreactor (Bellocell, Taiwan) with a working volume of 500 ml of culture medium for 2 days to adapt to the environment in which the hamster kidney cells could grow to a saturated number of about 3×10^9/bottle. The electrolysis-based hydrogen generator was started on day 2 for antioxidant cell culture to regulate cellular oxidative stress.
The cells were divided into two groups to analyze the antioxidant effect. […] Cell number, hydrogen concentrations, and reactive oxygen species (ROS) tolerance responses were measured daily.
The biological carriers in the bioreactors of the experimental group and the control group were collected daily, 1 ml of Crystal Violet Dye (CVD) cell counting dye was added, and the number of cells was counted and recorded using an inverted microscope.

[4] = test system: BHK21 cells infected with bovine epidemic fever virus; settings: 24 hours after virus infection, hydrogen group vs hydrogen-free group
Procedure: as §1, §2
Two groups of cells infected with virus on part of the carrier sheets in the bioreactor were collected after 24 hours, and H2O2 with concentrations of 0 μM, 4 μM, 10 μM, and 20 μM was added to induce intracellular oxidation reaction, and the ROS fold changes were evaluated by the method of 2.3 in Example 2.

Cdkn2a (p16) = settings: after hydrogen supply, on the third day; experimental vs control group
Procedure: as §3
The expression level of the cellular senescence molecule Cdkn2a (p16) is an indicator of senescent cells. […]

## [HH] [molecular hydrogen]
BHK-21 cells
  ROS fold change: significantly demonstrated reduced ROS fold change
[1]
  virus yield relative to hydrogen-free group: 16 times
[2]
  cell consumption rate (cell death rate): greater than that of the control group
[3]
  cell growth pattern / damage to cells: will not cause damage to cells
[4]; H2O2 10 μM
  ROS fold change: significantly reduced the ROS fold change
[4]; H2O2 20 μM
  ROS fold change: significantly reduced the ROS fold change
Cdkn2a (p16)
  fold change of gene expression of senescence molecule Cdkn2a (p16): decreased significantly

From patent US20240026554A1, “ANTIOXIDANT CULTURE METHOD AND ANTIOXIDANT AUXILIARY EQUIPMENT” (National Pingtung University of Science and Technology, priority 2022, published 2024)
